Laboratory results taken from patent publication US9850219B1, “Phenothiazine derivatives and methods of use thereof” (Acenda Pharma, Inc., priority 2016, dated 2017).

How the values were obtained:
[1] = test system: H441GL; test: Cytotoxicity, sulforhodamine B (SRB) assay, H441GL; format: cell-based, Human; conditions: 48 h, NA indicates no activity
Source text: (§1) Human non-small cell lung cancer (NSCLC) cell lines (e.g., A549, H441GL and H1299), colon cancer cell lines (e.g., HCT116 and DLD1), breast cancer cell lines (e.g., MCF7 and MDA-MB-231), and pancreatic cancer cell lines (e.g., PANC-1 and SUIT-2) were used in cytotoxicity studies. […] A549 and H441GL are EGFR-wild type adenocarcinoma cell lines. H1299 is an EGFR-wild type large cell carcinoma cell line. HCT116 and DLD1 are metastatic colon cell lines. MCF7 is a hormone-responsive breast cancer cell line. MDA-MB-231 is a triple-negative breast cancer cell line. PANC-1 is a metastatic adenocarcinoma cell line. SUIT-2 is a pancreatic ductal adenocarcinoma cell line.
(§2) All cell lines were grown and maintained in RPMI medium supplemented with 10% fetal bovine serum (FBS, Invitrogen), 2 mM L-glutamine, 100 U/mL penicillin, and 100 μg/mL streptomycin. For cell the culture experiment, stock solution (10 mM) of each test compound was dissolved in dimethyl sulfoxide (DMSO; Sigma).
(§3) Cells were plated in 96-well plates at a density of 2000 cells per well in triplicate. The cells in each well were treated on the third day (to ensure proper plating efficiency and vitality) with different concentrations (0-50 μM) of each test compound for 48 h.
(§4) Cell viability was assessed using the sulforhodamine B (SRB) assay. The medium was discarded, and the adherent cells were fixed by 100 μL of cold 10% trichloroacetic acid (w/v) in each well for 1 h at 4° C. After fixation, cells were stained with 100 μL/well of 0.4% (w/v, in 1% acetic acid) SRB solution for 30 min at room temperature, and then washed 5 times with 1% acetic acid. After air-drying, 100 μL of 10 mM Tris base was added to each well and the absorbance was read at 530 nm. Cytotoxicity is expressed as the percent of cells in drug treated wells relative to number of cells in the solvent only control (set to 100%). Each experiment was performed independently in triplicate and cytotoxicity IC50 value of each test compound was calculated from cytotoxicity data obtained at various concentrations.

[2] = test system: lung cancer cells; test: Cytotoxicity SRB assay, summary of Table 2; format: cell-based, Human; conditions: summary in words of Table 2
Source text: (§5) Human non-small cell lung cancer (NSCLC) cell lines (e.g., A549, H441GL and H1299), colon cancer cell lines (e.g., HCT116 and DLD1), breast cancer cell lines (e.g., MCF7 and MDA-MB-231), and pancreatic cancer cell lines (e.g., PANC-1 and SUIT-2) were used in cytotoxicity studies. These NSCLC cell lines have intrinsic resistance to epidermal growth factor receptor (EGFR) inhibitors, e.g., gefitinib. A549 and H441GL are EGFR-wild type adenocarcinoma cell lines. H1299 is an EGFR-wild type large cell carcinoma cell line. HCT116 and DLD1 are metastatic colon cell lines. MCF7 is a hormone-responsive breast cancer cell line. MDA-MB-231 is a triple-negative breast cancer cell line. PANC-1 is a metastatic adenocarcinoma cell line. SUIT-2 is a pancreatic ductal adenocarcinoma cell line.
as §3, §4
NA indicates no activity.

[3] = test system: A549; test: Cytotoxicity, sulforhodamine B (SRB) assay, A549; format: cell-based, Human; conditions: A549, 48 h, NA indicates no activity
Source text: as §1, §2, §3, §4

[4] = test system: SUIT-2; test: Cytotoxicity, sulforhodamine B (SRB) assay, SUIT-2; format: cell-based, human; conditions: SUIT-2, Pancreas, 48 h
Source text: as §5, §2, §3, §4

[5] = test system: PANC-1; test: Cytotoxicity, sulforhodamine B (SRB) assay, PANC-1; format: cell-based, human; conditions: PANC-1, Pancreas, 48 h, NA = no activity
Source text: as §5, §2, §3, §4

[6] = test system: MCF7; test: Cytotoxicity, sulforhodamine B (SRB) assay, MCF7; format: cell-based, human; conditions: MCF7, Breast, 48 h
Source text: as §5, §2, §3, §4

[7] = test system: MDA-MB-231; test: Cytotoxicity, sulforhodamine B (SRB) assay, MDA-MB-231; format: cell-based, human; conditions: MDA-MB-231, Breast, 48 h
Source text: as §5, §2, §3, §4

[8] = test system: H441GL cells; test: Study 2: tumor size in mouse lung cancer model; format: in vivo, NOD/SCID mice; conditions: Study 2, 0.0127 mmol/kg daily, i.p.; for Tumor Size [Fold Change from Week 3 (Mean ± SD, n = 4)] Week 3: Week 3 (baseline, start of treatment)
Method: (§6) H441GL cells (1×10^6 cells in 100 μL phosphate-buffered saline/injection) were subcutaneously injected into the right flank of NOD/SCID mice (female, 4-6 weeks old). Mice were allowed 2 weeks for tumor growth. On the first day of Week 3 post injection, tumor-bearing mice were randomly divided into control group (DMSO vehicle, intraperitoneal (i.p.) injection) and test compound treatment groups (5 mg/kg/day, 5 days/week, i.p. injection). Over the period of 10 weeks, tumorigenesis in both groups was measured using a caliper on a weekly basis. The change in tumor size was expressed as in fold change from Week 3. In this study body weight of each mouse was also recorded at the end of each study week.
In this study, the daily dose was 0.0127 mmol/kg instead of 5 mg/kg.

[9] = test system: H441GL cells; test: Study 1: tumor size in mouse lung cancer model; format: in vivo, NOD/SCID mice; conditions: Study 1, 5 mg/kg/day, 5 days/week, i.p.; for Tumor Size [Fold Change from Week 3 (Mean ± SD, n = 4)] Week 3: Week 3 (baseline, start of treatment)
Method: as §6

[10] = test system: H1299; test: Cytotoxicity, sulforhodamine B (SRB) assay, H1299; format: cell-based; conditions: Homo sapiens, NCI-H1299, H1299, 48 h
Source text: as §1, §2, §3, §4

SMILES | IC50 [1] [µM] | inhibition of cell proliferation of lung cancer cells [2] | IC50 [3] [µM] | IC50 [4] [µM] | IC50 [5] [µM] | IC50 [6] [µM] | IC50 [7] [µM] | IC50 ([1]; Homo sapiens) [µM] | IC50 ([3]; Homo sapiens) [µM] | also measured
COCCOCCOCCN1CCN(CCCN2c3ccccc3Sc3ccc(Cl)cc32)CC1 [Compound 4-1a] | 13.2 | inhibit cell proliferation | 32.5 | 13.2 | 12.3 | 12.8 | 11.9 | – | – | –
COCCOCCOCCOCCOCCOCCN1CCN(CCCN2c3ccccc3Sc3ccc(Cl)cc32)CC1 [Compound 4-2a] | 9.1 | inhibit cell proliferation | 10.9 | 13.5 | 13.1 | 13.2 | 18.1 | – | – | Tumor Size [Fold Change from Week 3 (Mean ± SD, n = 4)] Week 3 [8]: 1 ± 0 Fold Change; Tumor Size [Fold Change from Week 3 (Mean ± SD, n = 4)] Week 9 [8]: 10.3 ± 1.6 Fold Change; Tumor Size [Fold Change from Week 3 (Mean ± SD, n = 4)] Week 13 [8]: 25.6 ± 5.1 Fold Change
COCCOCCOCCOCCOCCOCCOCCOCCOCCOCCOCCOCCN1CCN(CCCN2c3ccccc3Sc3ccc(Cl)cc32)CC1 [Compound 4-3a] | 12.7 | inhibit cell proliferation | 11.9 | 25.4 | 7.1 | 10 | 15.6 | – | – | Tumor Size [Fold Change from Week 3 (Mean ± SD, n = 4)] Week 3 [8]: 1 ± 0 Fold Change; Tumor Size [Fold Change from Week 3 (Mean ± SD, n = 4)] Week 9 [8]: 12.5 ± 1.5 Fold Change; Tumor Size [Fold Change from Week 3 (Mean ± SD, n = 4)] Week 13 [8]: 32.6 ± 4.3 Fold Change
COCCOCCOCCOCCOCCOCCOCCOCCOCCOCCOCCOCCOCCOCCOCCOCCN1CCN(CCCN2c3ccccc3Sc3ccc(Cl)cc32)CC1 [Compound 4-4a] | 12.9 | inhibit cell proliferation | 20.2 | – | – | – | – | – | – | –
COCCOCCOCCOCCOCCOCCOCCOCCOCCOCCOCCOCCOCCOCCOCCOCCN1CCN(CCCN2c3ccccc3Sc3ccc(C(F)(F)F)cc32)CC1 [Compound 4-4b] | 36.4 | – | – | – | – | – | – | – | – | –
COCCOCCOCCOC(=O)N1CCN(CCCN2c3ccccc3Sc3ccc(Cl)cc32)CC1 [Compound 5-1a, NDP-CO—O—[CH2CH2O]3—CH3] | 16 | inhibit cell proliferation | 15.7 | 18.6 | 6.7 | 15.5 | 22.2 | – | – | Tumor Size [Fold Change from Week 3 (Mean ± SD, n = 4)] Week 3 [9]: 1 ± 0 Fold Change; Tumor Size [Fold Change from Week 3 (Mean ± SD, n = 4)] Week 9 [9]: 24.9 ± 4.3 Fold Change; Tumor Size [Fold Change from Week 3 (Mean ± SD, n = 4)] Week 13 [9]: 55.4 ± 10.8 Fold Change
COCCOCCOCCOCCOCCOCCOC(=O)N1CCN(CCCN2c3ccccc3Sc3ccc(Cl)cc32)CC1 [Compound 5-2a, NDP-CO—O—[CH2CH2]6—CH3] | 18.7 | inhibit cell proliferation | 25.2 | 16.2 | 6.9 | 15.3 | 21.6 | – | – | Tumor Size [Fold Change from Week 3 (Mean ± SD, n = 4)] Week 3 [9]: 1 ± 0 Fold Change; Tumor Size [Fold Change from Week 3 (Mean ± SD, n = 4)] Week 9 [9]: 28.0 ± 6.5 Fold Change; Tumor Size [Fold Change from Week 3 (Mean ± SD, n = 4)] Week 13 [9]: 66.2 ± 18.4 Fold Change
COCCOCCOCCOCCOCCOCCOCCOCCOCCOCCOCCOCCOC(=O)N1CCN(CCCN2c3ccccc3Sc3ccc(Cl)cc32)CC1 [Compound 5-3a, NDP-CO—O—[CH2CH2O]12—CH3] | 3 | inhibit cell proliferation | 2.7 | 11.3 | 5 | 6.5 | 8.9 | – | – | Tumor Size [Fold Change from Week 3 (Mean ± SD, n = 4)] Week 3 [9]: 1 ± 0 Fold Change; Tumor Size [Fold Change from Week 3 (Mean ± SD, n = 4)] Week 9 [9]: 23.7 ± 3.4 Fold Change; Tumor Size [Fold Change from Week 3 (Mean ± SD, n = 4)] Week 13 [9]: 53.9 ± 10.1 Fold Change
COCCOCCOCCOCCOCCOCCOCCOCCOCCOCCOCCOCCOCCOCCOCCOCCOC(=O)N1CCN(CCCN2c3ccccc3Sc3ccc(Cl)cc32)CC1 [Compound 5-4a, NDP-CO—O—[CH2CH2O]16—CH3] | 3 | inhibit cell proliferation | 6.2 | – | – | – | – | – | – | –
COCCOCCOCCOCCOCCOCCOCCOCCOCCOCCOCCOCCOCCOCCOCCOCCOC(=O)N1CCN(CCCN2c3ccccc3Sc3ccc(C(F)(F)F)cc32)CC1 [Compound 5-4b, NDT-CO—O—[CH2CH2O]16—CH3] | 17.5 | inhibit cell proliferation | 13.8 | – | – | – | – | – | – | –
COCCOCCOCCOCC(=O)N1CCN(CCCN2c3ccccc3Sc3ccc(Cl)cc32)CC1 [Compound 6-1a, NDP-CO—[CH2CH2O]3—CH3] | – | inhibit cell proliferation | – | – | – | – | – | 21.5 | 25.8 | –
COCCOCCOCCOCC(=O)N1CCN(CCCN2c3ccccc3Sc3ccc(C(F)(F)F)cc32)CC1 [Compound 6-1b, NDT-CO—[CH2CH2O]3—CH3] | – | inhibit cell proliferation | – | – | – | – | – | 16.2 | 17 | –
COCCOCCOCCOCCOCCOCCOCC(=O)N1CCN(CCCN2c3ccccc3Sc3ccc(Cl)cc32)CC1 [Compound 6-2a, NDP-CO—[CH2CH2O]6—CH3] | – | inhibit cell proliferation | – | – | – | – | – | 25.2 | 31.5 | –
COCCOCCOCCOCCOCCOCCOCC(=O)N1CCN(CCCN2c3ccccc3Sc3ccc(C(F)(F)F)cc32)CC1 [Compound 6-2b, NDT-CO—[CH2CH2O]6—CH3] | 15.5 | inhibit cell proliferation | 15.5 | – | – | – | – | – | – | –
COCCOCCOCCOCCOCCOCCOCCOCCOCCOCCOCCOCCOCC(=O)N1CCN(CCCN2c3ccccc3Sc3ccc(Cl)cc32)CC1 [Compound 6-3a, NDP-CO—[CH2CH2O]12—CH3] | – | inhibit cell proliferation | – | – | – | – | – | 24.3 | 22.3 | –
COCCOCCOCCOCCOCCOCCOCCOCCOCCOCCOCCOCCOCC(=O)N1CCN(CCCN2c3ccccc3Sc3ccc(C(F)(F)F)cc32)CC1 [Compound 6-3b, NDT-CO—[CH2CH2O]12—CH3] | – | – | 20.6 | – | – | – | – | – | – | –
COCCOCCOCCOCCOCCOCCOCCOCCOCCOCCOCCOCCOCCOCCOCCOCCOCC(=O)N1CCN(CCCN2c3ccccc3Sc3ccc(Cl)cc32)CC1 [Compound 6-4a, NDP-CO—[CH2CH2O]16—CH3] | – | – | – | – | – | – | – | 39.1 | – | –
COCCOCCOCCOCCOCCOCCOCCOCCOCCOCCOCCOCCOCCOCCOCCOCCOCC(=O)N1CCN(CCCN2c3ccccc3Sc3ccc(C(F)(F)F)cc32)CC1 [Compound 6-4b, NDT-CO—[CH2CH2O]16—CH3] | – | – | – | – | – | – | – | 30 | 44.2 | –
FC(F)(F)c1ccc2c(c1)N(CCCN1CCNCC1)c1ccccc1S2 [NDT, N-desmethyl trifluoperazine, reference compound] | – | inhibit cell proliferation | – | – | – | – | – | 3.9 | 6.3 | IC50 [10]: 6.9 µM
